Where two headings read alike, the source gives them in different places. A value given as a limit tells only on which side of the number the result lay.

In one assay the target is T1, hClpP (Homo sapiens, UniProt Q16740).
T1 construct: endogenous in cells; host or cells: HeLa cell lysate
In words: hClpP binding to immobilized compound Sepharose beads, Western blot. In general terms: A western blot detects proteins with antibodies after separation by electrophoresis.

The target of assay [1] is recombinant human caseinolytic peptidase hClpP (Homo sapiens, UniProt Q16740). Put plainly: hClpP peptide hydrolysis assay (Ac-WLA-AMC). The note with it: Protocol 2, purified hClpP, Ac-WLA-AMC.
recombinant human caseinolytic peptidase hClpP, sequence (Q16740 57-277): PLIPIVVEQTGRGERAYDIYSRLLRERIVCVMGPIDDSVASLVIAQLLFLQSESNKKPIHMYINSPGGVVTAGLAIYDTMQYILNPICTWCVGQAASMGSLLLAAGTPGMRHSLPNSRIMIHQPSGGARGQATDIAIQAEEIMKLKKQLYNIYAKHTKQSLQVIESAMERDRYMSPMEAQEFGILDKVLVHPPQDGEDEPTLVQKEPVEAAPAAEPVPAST
Experimental: Briefly, the activity of recombinant hClpP proteolytic subunit (1 μg/mL) was measured in the assay buffer composed of 50 mM Tris, 10 mM MgCl2, 100 mM KCl, 1 mM DTT, 4 mM ATP, 0.02% Triton X-100 and 5% Glycerol, pH 8.0 (HCl) using 10 µM of fluorogenic Ac-WLA-AMC substrate as described in references above. […] Using the first protocol (Protocol 1), the reaction was initiated by immediately mixing enzyme and substrate in the presence of indicated doses of compounds. Applying a second protocol (Protocol 2), the enzyme and compounds were mixed and incubated in assay buffer for 60 min before initiating the reaction by adding Ac-WLA-ACM substrate.
Enzymatic activity of hClpP was measured in assay buffer (as described in Experimental Procedure/Materials and Methods) and the level of fluorescence of liberated coumarin monitored continuously.
For assay [2], the system named is HCT116 (human colon cancer). Put plainly: Cancer cell viability, CCK-8, HCT116. Type of assay: cell-based. The note with it: Homo sapiens, HCT-116, 48 h; for EC50: read-out: EC50 (uM, HCT116). The method, then: (§1) Cancer cell lines. […] The plate is incubated for 48 hours.
(§2) CCK-8 solution is added directly to the cells.

The test system of assay [3] is SUM159 triple negative breast cancer cells. In words: Immunoblot of mitochondrial proteins, SUM159 (FIG. 12). It is filed as cell-based. The note with it: SUM159, 100 nM, 3-48 hrs. As to the method: (§3) Immunoblot of SUM159 or MDA-MB-231 cells following 0.1% DMSO (48 hrs) or 100 nM Ex. 65 for indicated timepoints (3-48 hrs) for indicated proteins.
The test system of assay [4] is AN3CA (human uterine cancer). Put plainly: Cell viability CCK8, 72 hours, AN3CA. It is filed as cell-based. The conditions noted are these: AN3-CA, 72 hours of drug incubation. The method, then: (§4) For cancer cell lines, AN3CA (human uterine/endometrial cancer, Van Nyen, T. et al Int. J. Mol. Sci. 2018, 19, 2348 and referenced cited therein) cell line and Capan-2 (human pancreatic adenocarcinoma) cell line additional details for testing are as follows. Using 96 well cell culture plate (Corning Costar, Cat #3599), after addition of the test compound (Example 65, or other) the plate is incubated at 37° C., 5% CO2 for 72 hours. Cell viability was determined using CCK8 assay by adding […] of CCK8 into the assay well, incubate the plate for 2 hours and record […] using a SpectraMax i3X reader. Other 72 hour incubation studies can also using these details in addition to other experimental details described herein.
(§5) Example 65 was examined in AN3CA (human uterine cancer) and Capan-2 (human pancreatic adenocarcinoma) cancer cell lines.

Assay [5] has as its system MDA-MB-231 triple negative breast cancer cells. In words: Immunoblot of mitochondrial proteins, MDA-MB-231 (FIG. 12). The conditions noted are these: MDA-MB-231, 100 nM, 3-48 hrs. It is filed as cell-based. As to the method:
as §3

Assay [6] concerns Capan-2 (human pancreatic adenocarcinoma). In words: Cell viability CCK8, 72 hours, Capan-2. Type of assay: cell-based. The note with it: 72 hours of drug incubation. The method, then: as §4, §5
Assay [7] concerns MDA-MB-231 (MDA 231, human breast adenocarcinoma). Put plainly: Cancer cell viability, CCK-8, MDA-MB-231. Type of assay: cell-based. The note with it: Homo sapiens; for EC50: read-out: EC50 (uM, MDA 231). As to the method:
as §1, §2

Another assay relates to ALAS1 (SEQ ID NO. 2). In words: ALAS1 Western blotting time courses (FIG. 15-17). The note with it: Ex. 85 at 50 nM; 30 minute, sustained over 24 hrs.
Another assay relates to ClpX and TUFM. In words: ClpX and TUFM Western blots in SUM159 cells (FIG. 5). The note with it: concentration response and time course.
The subject of the next assay is SUM159, ClpP CRISPR KO. In words: Growth of SUM159 versus SUM159 ClpP CRISPR KO cells (FIG. 6). The conditions noted are these: SUM159 ClpP CRISPR KO compared to SUM159.

T1 sequence (Q16740 57-277): as above

Broadly, the EC50 is the midpoint of the concentration-response curve. As for `N#Cc1cccc(CN2CCc3c(c(=O)n(Cc4ccc(C(F)(F)F)cc4)c(=O)n3CCCN)C2)c1` [Ex. 57, 3-((1-(3-aminopropyl)-2,4-dioxo-3-(4-(trifluoromethyl)benzyl)-1,2,3,4,7,8-hexahydropyrido[4,3-d]pyrimidin-6 (5H)-yl)methyl)benzonitrile], the “hClpP binding to compound coupled to Sepharose beads” value at hClpP was “directly binds”. In addition, the “Dose-dependency of hClpP activation” value in assay [1] is listed as “dose-dependent increases in hClpP activity”. Also, in assay [2] (HCT116, 48 hours, CCK-8), the EC50 was 0.057 µM.
As usually defined, the IC50 is the concentration that gives 50% inhibition. Regarding `N#Cc1cccc(CN2CCc3ncn(Cc4ccc(Cl)cc4)c(=O)c3C2)c1` [Example 65], the Mitochondrial protein degradation result in [3] and in [5] was “induces degradation of mitochondrial proteins in a time dependent manner” in each case. Moreover, the results for the IC50 in assay [4] and in assay [6] were 0.001 µM and < 0.05 µM, respectively. The “Dose-dependency of hClpP activation” value in [1] is recorded as “Dose-dependent increases in hClpP activity”. Besides, the EC50 in assay [2] (HCT116, 48 hours, CCK-8) worked out at 0.021 µM.
On to `N#Cc1cccc(CN2CCc3cnn(Cc4ccc(Cl)cc4)c(=O)c3C2)c1` [Example 85, 3-((3-(4-chlorobenzyl)-4-oxo-3,5,7,8-tetrahydropyrido[3,4-d]pyridazin-6 (4H)-yl)methyl)benzonitrile], for which the EC50 in assay [7] (MDA-MB-231, MDA 231, 48 hours, CCK-8) is 0.003 µM; in assay [2] (HCT116, 48 hours, CCK-8), 0.008 µM. For the same molecule, in the assay with ALAS1 (SEQ ID NO. 2), the “ALAS1 protein level (FIG. 16)” value is listed as “rapidly degraded”.
Turning to `Cc1ccccc1CN1C(=O)C2=C(CCN(Cc3ccccc3)C2)N2CCN=C12` [ONC201, reference compound], the “ClpX and TUFM protein level” value with ClpX and TUFM was “reduction of the protein ClpX and TUFM”. The 50% effective concentration (EC50) in assay [7] (MDA-MB-231, 48 h) was 3 µM; in assay [2], 2.8 µM. In addition, the IC50 in [7] (MDA-MB-231, 48 h, read-out: IC50 (uM, MDA 231)) came out at 3 µM; in [2] (read-out: IC50 (uM, HCT116)), 2.8 µM.
Regarding `Cn1c2c(c(=O)n(Cc3ccc(Cl)cc3)c1=O)CN(Cc1cccc(C#N)c1)CC2` [TR57], the “ClpX and TUFM protein level” value with ClpX and TUFM is “reduction of the protein ClpX and TUFM”. Further, the “Effect on growth of ClpP CRISPR knockout cells” value in the assay on SUM159, ClpP CRISPR KO is “resistant”.

(Values after patent US12692267B2 (Madera Therapeutics, LLC, priority 2019, dated 2026).)
